Source: ChEMBL document CHEMBL1129207, “Altering the specificity of subtilisin B. Lentus by combining site-directed mutagenesis and chemical modification” (Bioorg Med Chem Lett, 1996)
pKi: −log10 of the molar value.

Columns and labels:
Design in all cases: species or system Lederbergia lenta
[1] = Compound was evaluated for the inhibition of SBL-M222C enzyme.
[2] = Compound was evaluated for the inhibition of SBL-M222C-SEtNH3+ enzyme.
[3] = Compound was evaluated for the inhibition of SBL-M222C-SEtSO3- enzyme.
[4] = Compound was evaluated for the inhibition of SBL-M222C-SMe enzyme.
[5] = Compound was evaluated for the inhibition of SBL-WT enzyme.

Row | SMILES | pKi [1] | pKi [2] | pKi [3] | pKi [4] | pKi [5]
1 | OB(O)c1ccc(Br)cc1 | 4.64 | 4.98 | 4.81 | 4.95 | 4.64
2 | Nc1cccc(B(O)O)c1 | 3.69 | 3.90 | 3.75 | 3.86 | 3.82

Results, then the molecule that gave them:

Row | pKi [1] | pKi [2] | pKi [3] | pKi [4] | pKi [5] | SMILES
3 | 4.74 | 5.05 | 4.96 | 5.42 | 5.04 | OB(O)c1ccc(Cl)cc1Cl
4 | 4.51 | 4.40 | 4.60 | 3.82 | 3.49 | OB(O)c1cccc(-c2ccccc2)c1
5 | 3.81 | 3.97 | 3.84 | 3.91 | 3.85 | OB(O)c1ccccc1 [PHENYLBORONIC ACID]
